In PubChem BioAssay AID1963446 (Molecular Pharmacology Branch, DTP, NCI, 2024):

System: 993429-296-R-J1-PDC complex spheroid growth, percent test/control
Assay: Anticancer human tumor 993429-296-R-J1-PDC patient-derived uterine sarcoma cell line growth inhibition [Asc]
Conditions: for IC50: curve of first compound; for viability, T/C: stronger effect = lower value
Summary of the method: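 Complex solid-tumor spheroids incorporating human endothelial and mesenchymal stem cells received single agents or combinations over half-log dilution ranges anchored to clinical Cmax.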

[1] = second compound 0.01 µM, first compound 0.00949 µM
[2] = second compound 0.01 µM, first compound 0.03 µM
[3] = second compound 0.01 µM, first compound 0.0949 µM
[4] = second compound 0.01 µM, first compound 0.3 µM
[5] = second compound 0.01 µM, first compound 0.949 µM
[6] = second compound 0.01 µM, first compound 3 µM
[7] = second compound 0.0316 µM, first compound 0.00949 µM
[8] = second compound 0.0316 µM, first compound 0.03 µM
[9] = second compound 0.0316 µM, first compound 0.0949 µM
[10] = second compound 0.0316 µM, first compound 0.3 µM
[11] = second compound 0.0316 µM, first compound 0.949 µM
[12] = second compound 0.0316 µM, first compound 3 µM
[13] = second compound 0.1 µM, first compound 0.00949 µM
[14] = second compound 0.1 µM, first compound 0.03 µM
[15] = second compound 0.1 µM, first compound 0.0949 µM
[16] = second compound 0.1 µM, first compound 0.3 µM
[17] = second compound 0.1 µM, first compound 0.949 µM
[18] = second compound 0.1 µM, first compound 3 µM
[19] = second compound 0.316 µM, first compound 0.00949 µM
[20] = second compound 0.316 µM, first compound 0.03 µM
[21] = second compound 0.316 µM, first compound 0.0949 µM
[22] = second compound 0.316 µM, first compound 0.3 µM
[23] = second compound 0.316 µM, first compound 0.949 µM
[24] = second compound 0.316 µM, first compound 3 µM
[25] = second compound 1 µM, first compound 0.00949 µM
[26] = second compound 1 µM, first compound 0.03 µM
[27] = second compound 1 µM, first compound 0.0949 µM
[28] = second compound 1 µM, first compound 0.3 µM
[29] = second compound 1 µM, first compound 0.949 µM
[30] = second compound 1 µM, first compound 3 µM
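Note: spheroids exposed to compounds for seven days.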

Row | SMILES | IC50 (second compound 0.01 µM) | IC50 (second compound 0.0316 µM) | IC50 (second compound 0.1 µM) | IC50 (second compound 0.316 µM) | IC50 (second compound 1 µM) | viability, T/C [1] | viability, T/C [2] | viability, T/C [3] | viability, T/C [4] | viability, T/C [5] | viability, T/C [6] | viability, T/C [7] | viability, T/C [8] | viability, T/C [9] | viability, T/C [10] | viability, T/C [11] | viability, T/C [12] | viability, T/C [13] | viability, T/C [14] | viability, T/C [15] | other results
1 | CCN1C(C(=O)NC23CCC(C(=O)O)(CC2)CC3)C(c2cccc(Cl)c2F)C2(C(=O)Nc3cc(Cl)ccc32)C12CCCCC2 (stereo not given) + CNC(C)C(=O)NC1CN(S(=O)(=O)c2cccc(S(=O)(=O)N3CCC4CCC(C(=O)NC(c5ccccc5)c5ccccc5)N4C(=O)C(NC(=O)C(C)NC)C3)c2)CCC2CCC(C(=O)NC(c3ccccc3)c3ccccc3)N2C1=O | > 3000 nM | > 3000 nM | > 3000 nM | < 9.49 nM | > 3000 nM | 66.7% | 61.1% | 64% | 66.5% | 74.5% | 60% | 66.2% | 61.2% | 55% | 54.5% | 68.5% | 61.1% | 58.9% | 50% | 56% | viability, T/C [16]: 48.4%; viability, T/C [17]: 60.1%; viability, T/C [18]: 64%; viability, T/C [19]: 48.9%; viability, T/C [20]: 55.7%; viability, T/C [21]: 53%; viability, T/C [22]: 60.8%; viability, T/C [23]: 68.7%; viability, T/C [24]: 58.1%; viability, T/C [25]: 55.3%; viability, T/C [26]: 59.9%; viability, T/C [27]: 45.4%; viability, T/C [28]: 40.9%; viability, T/C [29]: 51.8%; viability, T/C [30]: 63.1%
2 | Cc1nc(N2CCC3(CC2)COC(C)C3N)c(CO)nc1Sc1ccnc(N)c1Cl (stereo not given) + CNC(C)C(=O)NC1CN(S(=O)(=O)c2cccc(S(=O)(=O)N3CCC4CCC(C(=O)NC(c5ccccc5)c5ccccc5)N4C(=O)C(NC(=O)C(C)NC)C3)c2)CCC2CCC(C(=O)NC(c3ccccc3)c3ccccc3)N2C1=O | 103 nM | 84.7 nM | 56.8 nM | < 9.49 nM | 107 nM | 68.6% | 61.1% | 49.5% | 42.5% | 37% | 32.2% | 67.5% | 57.5% | 50.9% | 39.4% | 36.7% | 30.9% | 60.1% | 54.9% | 45.2% | viability, T/C [16]: 39.8%; viability, T/C [17]: 29%; viability, T/C [18]: 28.3%; viability, T/C [19]: 43.6%; viability, T/C [20]: 48.9%; viability, T/C [21]: 51.9%; viability, T/C [22]: 41.3%; viability, T/C [23]: 32.4%; viability, T/C [24]: 29.2%; viability, T/C [25]: 53.1%; viability, T/C [26]: 48.1%; viability, T/C [27]: 52.2%; viability, T/C [28]: 40%; viability, T/C [29]: 20.5%; viability, T/C [30]: 26.7%
